From paper PMC4850841 (Journal of medicinal chemistry, 2013)

How the values were obtained:
[1] = test system: GluN2C/D-containing NMDA receptors; assay: Potentiation of NMDA receptors, results stated jointly for both subtypes; type: cell-based, rat; details: for EC50: read-out: EC50, GluN2C/GluN2D stated jointly, maximally effective concentrations of glutamate and glycine
GluA1 = GluA1 (Rattus norvegicus, UniProt P19490); assay: Two electrode voltage clamp recordings, Xenopus laevis oocytes; type: cell-based; details: co-applied with 100 µM glutamate
Sequence of GluA1 (P19490 19-907): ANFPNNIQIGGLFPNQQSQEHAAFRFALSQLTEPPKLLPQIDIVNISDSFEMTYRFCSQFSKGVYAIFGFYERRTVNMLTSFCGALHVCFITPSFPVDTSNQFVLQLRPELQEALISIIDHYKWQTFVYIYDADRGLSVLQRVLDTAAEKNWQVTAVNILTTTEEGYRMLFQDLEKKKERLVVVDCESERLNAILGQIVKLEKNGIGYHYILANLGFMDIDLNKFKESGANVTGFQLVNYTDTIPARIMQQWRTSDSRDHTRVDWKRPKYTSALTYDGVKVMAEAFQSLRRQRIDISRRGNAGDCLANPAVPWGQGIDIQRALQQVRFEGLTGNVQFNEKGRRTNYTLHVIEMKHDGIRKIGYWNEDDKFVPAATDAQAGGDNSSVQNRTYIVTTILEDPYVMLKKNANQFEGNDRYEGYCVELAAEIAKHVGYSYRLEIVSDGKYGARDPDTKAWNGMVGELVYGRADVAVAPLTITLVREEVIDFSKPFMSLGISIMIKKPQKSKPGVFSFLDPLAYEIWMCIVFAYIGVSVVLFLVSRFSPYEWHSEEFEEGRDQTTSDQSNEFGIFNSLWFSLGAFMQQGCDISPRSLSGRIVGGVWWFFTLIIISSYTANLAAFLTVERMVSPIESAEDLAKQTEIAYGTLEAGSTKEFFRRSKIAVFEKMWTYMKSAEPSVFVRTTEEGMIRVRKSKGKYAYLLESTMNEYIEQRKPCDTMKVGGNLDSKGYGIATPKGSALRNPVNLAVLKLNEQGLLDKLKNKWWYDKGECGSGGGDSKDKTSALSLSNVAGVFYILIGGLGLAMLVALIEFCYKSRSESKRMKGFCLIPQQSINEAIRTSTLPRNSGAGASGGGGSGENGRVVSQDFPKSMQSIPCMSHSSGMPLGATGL

effect on homomeric GluA1 responses (GluA1)	activity on GluN2C- or GluN2D-containing receptors [1]	Structure (SMILES)	also measured
		COc1ccc(OCC2c3ccc(OCc4ccccc4)cc3CCN2C(=O)c2cccc(Cl)c2)cc1 (stereo not drawn) [compound 82, (6-(benzyloxy)-1-((4-methoxyphenoxy)methyl)-3,4-dihydroisoquinolin-2(1H)-yl)(3-chlorophenyl)methanone]	EC50 [1]: 300 to 400 nM
no effects		COc1ccc(OCC2c3cc(OC)c(OC)cc3CCN2C(=O)c2cc(Cl)cc(Cl)c2)cc1 (stereo not drawn) [compound 87, (3,5-dichlorophenyl)(6,7-dimethoxy-1-((4-methoxyphenoxy)methyl)-3,4-dihydroisoquinolin-2(1H)-yl)methanone]	
no effects		COc1ccc(OCC2c3cc(OC)c(OC)cc3CCN2C(=O)c2cccc(CCl)c2)cc1 (stereo not drawn) [compound 96, (3-(chloromethyl)phenyl)(6,7-dimethoxy-1-((4-methoxyphenoxy)methyl)-3,4-dihydroisoquinolin-2(1H)-yl)methanone]	
no effects		COc1ccc(OCC2c3cc(OC)c(OC)cc3CCN2C(=O)c2cccc(C#N)c2)cc1 (stereo not drawn) [compound 98, 3-(6,7-dimethoxy-1-((4-methoxyphenoxy)methyl)-1,2,3,4-tetrahydroisoquinoline-2-carbonyl)benzonitrile]	
	no detectable activity	CCOc1ccc(OCC2c3cc(OC)c(OC)cc3CCN2C(=O)c2cccc(Cl)c2)cc1 (stereo not drawn) [compound 100, (3-chlorophenyl)(1-((4-ethoxyphenoxy)methyl)-6,7-dimethoxy-3,4-dihydroisoquinolin-2(1H)-yl)methanone]	
	no detectable activity	CCOc1ccc(OCC2c3cc(OC)c(OC)cc3CCN2C(=O)c2cccc(Br)c2)cc1 (stereo not drawn) [compound 101, (3-bromophenyl)(1-((4-ethoxyphenoxy)methyl)-6,7-dimethoxy-3,4-dihydroisoquinolin-2(1H)-yl)methanone]	
no effects		COc1ccc(OCC2c3cc4c(cc3CCN2C(=O)c2cccc(Cl)c2)OCO4)cc1 (stereo not drawn) [compound 111, (3-chlorophenyl)(5-((4-methoxyphenoxy)methyl)-7,8-dihydro-[1,3]dioxolo[4,5-g]isoquinolin-6(5H)-yl)methanone]	
no effects		COc1ccc(OCC2c3ccc(OC)cc3CCN2C(=O)c2cccc(Cl)c2)cc1 (stereo not drawn) [compound 117, (3-chlorophenyl)(6-methoxy-1-((4-methoxyphenoxy)methyl)-3,4-dihydroisoquinolin-2(1H)-yl)methanone]	
no effects		COc1ccc(OCC2c3ccc(OC)cc3CCN2C(=O)c2cccc(Br)c2)cc1 (stereo not drawn) [compound 118, (3-bromophenyl)(6-methoxy-1-((4-methoxyphenoxy)methyl)-3,4-dihydroisoquinolin-2(1H)-yl)methanone]	
		COc1ccc(OCC2c3cc(C)c(C)cc3CCN2C(=O)c2cccc(Cl)c2)cc1 (stereo not drawn) [compound 122, (3-chlorophenyl)(1-((4-methoxyphenoxy)methyl)-6,7-dimethyl-3,4-dihydroisoquinolin-2(1H)-yl)methanone]	EC50 [1]: ~1000 nM
		COc1ccc(OCC2c3cc(C)c(C)cc3CCN2C(=O)c2cccc(Br)c2)cc1 (stereo not drawn) [compound 123, (3-bromophenyl)(1-((4-methoxyphenoxy)methyl)-6,7-dimethyl-3,4-dihydroisoquinolin-2(1H)-yl)methanone]	EC50 [1]: ~1000 nM
	eliminated activity	COc1ccc(SCC2c3cc(OC)c(OC)cc3CCN2C(=O)c2ccccc2)cc1 (stereo not drawn) [compound 127, (6,7-dimethoxy-1-(((4-methoxyphenyl)thio)methyl)-3,4-dihydroisoquinolin-2(1H)-yl)(phenyl)methanone]	
	no detectable activity	COc1cc2c(cc1OC)C(COc1ccc([N+](=O)[O-])cc1)N(C(=O)c1ccccc1)CC2 (stereo not drawn) [compound 128, (6,7-dimethoxy-1-((4-nitrophenoxy)methyl)-3,4-dihydroisoquinolin-2(1H)-yl)(phenyl)methanone]	
	no detectable activity	COc1cc2c(cc1OC)C(COc1ccc([N+](=O)[O-])cc1)N(C(=O)c1cccc(Cl)c1)CC2 (stereo not drawn) [compound 129, (3-chlorophenyl)(6,7-dimethoxy-1-((4-nitrophenoxy)methyl)-3,4-dihydroisoquinolin-2(1H)-yl)methanone]	
	no detectable activity	COc1cc2c(cc1OC)C(COc1ccc([N+](=O)[O-])cc1)N(C(=O)c1cccc(Br)c1)CC2 (stereo not drawn) [compound 130, ((3-bromophenyl)(6,7-dimethoxy-1-((4-nitrophenoxy)methyl)-3,4-dihydroisoquinolin-2(1H)-yl)methanone)]	
	no detectable activity	COc1cc2c(cc1OC)C(COc1ccc(N)cc1)N(C(=O)c1ccccc1)CC2 (stereo not drawn) [compound 131, ((1-((4-aminophenoxy)methyl)-6,7-dimethoxy-3,4-dihydroisoquinolin-2(1H)-yl)(phenyl)methanone)]	
	no detectable activity	COc1cc2c(cc1OC)C(COc1ccc(N)cc1)N(C(=O)c1cccc(Cl)c1)CC2 (stereo not drawn) [compound 132, ((1-((4-aminophenoxy)methyl)-6,7-dimethoxy-3,4-dihydroisoquinolin-2(1H)-yl)(3-chlorophenyl)methanone)]	

effect on homomeric GluA1 responses (GluA1)	activity on GluN2C- or GluN2D-containing receptors [1]	Structure (SMILES)	also measured
	no detectable activity	COc1cc2c(cc1OC)C(COc1ccc(N)cc1)N(C(=O)c1cccc(Br)c1)CC2 (stereo not drawn) [compound 133, ((1-((4-aminophenoxy)methyl)-6,7-dimethoxy-3,4-dihydroisoquinolin-2(1H)-yl)(3-bromophenyl)methanone)]	
no effects		COc1ccc(OCC2c3cc(OC)c(OC)cc3CCN2C(=O)c2ccc3ccccc3c2)cc1 (stereo not drawn) [compound 138, (6,7-dimethoxy-1-((4-methoxyphenoxy)methyl)-3,4-dihydroisoquinolin-2(1H)-yl)(naphthalen-2-yl)methanone]	
no effects		COc1ccc(OCC2c3cc(OC)c(OC)cc3CCN2C(=O)CN2CCOCC2)cc1 (stereo not drawn) [compound 140, 1-(6,7-dimethoxy-1-((4-methoxyphenoxy)methyl)-3,4-dihydroisoquinolin-2(1H)-yl)-2-morpholinoethanone]	
	eliminated all activity	COc1ccc(OCC2c3cc(OC)c(OC)cc3CCN2Cc2ccccc2)cc1 (stereo not drawn) [compound 141, 2-benzyl-6,7-dimethoxy-1-((4-methoxyphenoxy)methyl)-1,2,3,4-tetrahydroisoquinoline]	
no effects		COc1ccc(/C=C/C2c3cc(OC)c(OC)cc3CCN2C(=O)c2ccccc2)cc1 (stereo not drawn) [compound 155, (E)-(6,7-dimethoxy-1-(4-methoxystyryl)-3,4-dihydroisoquinolin-2(1H)-yl)(phenyl)methanone]	
no effects		COc1ccc(/C=C/C2c3cc(OC)c(OC)cc3CCN2C(=O)c2cccc(Br)c2)cc1 (stereo not drawn) [compound 157, (E)-(3-bromophenyl)(6,7-dimethoxy-1-(4-methoxystyryl)-3,4-dihydroisoquinolin-2(1H)-yl)methanone]	
no effects		COc1ccc(/C=C/C2c3ccc(OC)cc3CCN2C(=O)c2cccc(Cl)c2)cc1 (stereo not drawn) [compound 158, (E)-(3-chlorophenyl)(6-methoxy-1-(4-methoxystyryl)-3,4-dihydroisoquinolin-2(1H)-yl)methanone]	
no effects		COc1ccc(/C=C/C2c3ccc(OC)cc3CCN2C(=O)c2cccc(Br)c2)cc1 (stereo not drawn) [compound 159, (E)-(3-bromophenyl)(6-methoxy-1-(4-methoxystyryl)-3,4-dihydroisoquinolin-2(1H)-yl)methanone]	
no effects		COc1ccc(CCC2c3cc(OC)c(OC)cc3CCN2C(=O)c2cccc(Cl)c2)cc1 (stereo not drawn) [compound 161, (3-chlorophenyl)(6,7-dimethoxy-1-(4-methoxyphenethyl)-3,4-dihydroisoquinolin-2(1H)-yl)methanone]	
no effects		COc1ccc(CCC2c3cc(OC)c(OC)cc3CCN2C(=O)c2cccc(Br)c2)cc1 (stereo not drawn) [compound 162, (3-bromophenyl)(6,7-dimethoxy-1-(4-methoxyphenethyl)-3,4-dihydroisoquinolin-2(1H)-yl)methanone]	
	loss of activity	COc1ccc(OCC2c3cc(OC)c(OC)cc3CCN2C(=S)Nc2ccccc2)cc1 (stereo not drawn) [compound 211]	
	loss of activity	COc1ccc(OCC2c3cc(OC)c(OC)cc3CCN2C(=S)Nc2cccc(Cl)c2)cc1 (stereo not drawn) [compound 212]	
	loss of activity	COc1ccc(OCC2c3cc(OC)c(OC)cc3CCN2C(=S)Nc2cccc(F)c2)cc1 (stereo not drawn) [compound 213]	
	loss of activity	COc1ccc(OCC2c3cc(OC)c(OC)cc3CCN2C(=S)Nc2cccc(Br)c2)cc1 (stereo not drawn) [compound 214]	
	weak potentiating activity	COc1ccc(OCC2c3cc(OC)c(OC)cc3CCN2C(=S)Nc2cccc(C)c2)cc1 (stereo not drawn) [compound 215]	
	eliminated all activity	COc1ccc(OCC2c3cc(OC)c(OC)cc3CCN2S(=O)(=O)c2ccccc2)cc1 (stereo not drawn) [compound 216]	
	eliminated all activity	COc1ccc(OCC2c3cc(OC)c(OC)cc3CCN2S(=O)(=O)c2cccc(Cl)c2)cc1 (stereo not drawn) [compound 217]	

Structure (SMILES)	effect on homomeric GluA1 responses (GluA1)	activity on GluN2C- or GluN2D-containing receptors [1]	also measured
COc1ccc(OCC2c3ccc(OC)c(OC)c3CCN2C(=O)c2cccc(Cl)c2)cc1 (stereo not drawn) [compound 120, (3-chlorophenyl)(5,6-dimethoxy-1-((4-methoxyphenoxy)methyl)-3,4-dihydroisoquinolin-2(1H)-yl)methanone]		inactive	
COc1ccc(OCC2c3ccc(OC)c(OC)c3CCN2C(=O)c2cccc(Br)c2)cc1 (stereo not drawn) [compound 121, (3-bromophenyl)(5,6-dimethoxy-1-((4-methoxyphenoxy)methyl)-3,4-dihydroisoquinolin-2(1H)-yl)methanone]		inactive	
